Source: patent US4963565A, “In vivo treatment of mycobacterial infections with 6-cyclo octylamino-5,8-quinoline quinone” (priority 1986, dated 1990)

How the values were obtained:
M. tuberculosis H37 Rv [1] = assay: In vivo activity against M. tuberculosis infections in C57Bl/6 mice (Example VII); parameters: species or system M. tuberculosis (host: C57Bl/6 mice)
Method: Animal studies were performed using the mouse model. Mice are accepted as excellent experimental models for human mycobacterial diseases. While earlier literature (see review by Youmans etc.), have established C57Bl/6 mice models for in vivo studies with M. tuberculosis, mouse models for experimental M. intracellulare infections were difficult until recently (see review by Gangadharam). The Beige mouse (C57Bl/6/bg/bg) model established by Gangadharam et al is now used for studies with M. intracellulare. In the in vivo studies described below, C57Bl/6 and Beige mice models are used for M. tuberculosis and M. intracellulare infections, respectively.
In chemotherapy studies, various concentrations of CQQ and ansamycin (LM 427), were used. Lung and spleen tissue samples from the animal models were used. "CFU" refers to the "colony forming units" observed when culturing these samples.
In all of the following experiments, spleens and lungs were removed aseptically from the subject animals, at different periods of challenge. The organs were ground and samples of the ground organs were plated in aliquots on 7H11 agar medium. If the bacteria were present, they would grow, forming CFUs. The plates were incubated at 37° C. (with 5% CO2 for M. tuberculosis), and read after three weeks incubation.
CFUs were counted by visual enumeration. If increased magnification was necessary, this was done using a plate microscope.
In this experiment C57Bl/6 mice were infected intravenously with M. tuberculosis H37 Rv strain and one group was treated daily orally with 10 mg/kg of CQQ and the others as untreated infected control.

C57Bl/6 and Beige mice = assay: Chronic toxicity in C57Bl/6 and Beige mice; assay type: in vivo; conditions: 40 mg/kg/day, and intraperitoneal doses over 30 mg/kg, more than 60 days
Method: (§1) Studies were performed to obtain toxicity data. […] Extrapolating, this corresponds to an LD50 of approximately 40 gr for a 70 kg subject. For chronic toxicity studies both C57Bl/6 and Beige mice were administered doses of 40 mg/kg/day, and intraperitoneal doses over 30 mg/kg for more than 60 days.

M. tuberculosis H37 Rv [2] = assay: In vitro activity against growing culture of M. tuberculosis in Middlebrook 7H9 broth; conditions: 2 mcg/ml, FIG. 7
[3] = tested on: Mycobacterium intracellulare strain 571-8; assay: In vivo chemotherapeutic activity against M. intracellulare, acute model in Beige mice (Example 1); parameters: species or system M. intracellulare (host: Beige mice, C57Bl/6/bg/bg); conditions: FIG. 1
M. tuberculosis = conditions: Gangadharam et al.; cited from earlier work
M. intracellulare = assay: In vivo chemotherapeutic activity against M. intracellulare in the Beige mouse model (Example II); parameters: species or system M. intracellulare (host: Beige mice); conditions: 10 mg/kg daily orally; 1, 2 and 4 weeks (P 0.05), FIG. 2
macrophages = assay: Cytotoxicity to macrophages (Table 3 footnote); assay type: cell-based, human; conditions: Sample I; 200 NG/ML (cell printed *)
Description: Blood from a healthy volunteer was drawn and monocytes were removed and cultured to the macrophage stage. This required about 7 days. The macrophages were then exposed to M. leprae bacilli obtained from biopsy specimens of leprosy patients. One sample was exposed to CQQ, while other samples were exposed to DDS (diaminodiphenyl sulphone), the standard antileprosy drug, or rifampin, at various concentrations. Macrophages were exposed to radiolabelled tritium (^3 H) labeled thymidine, and its uptake was measured using a liquid scintillation counter. A control model of M. leprae exposed macrophages, which was not treated was used as well. The uptake of thymidine is a measure of antimycobacterial activity.

C57Bl/6 mice = assay: Acute toxicity in C57Bl/6 mice; assay type: in vivo; conditions: 70 kg subject, extrapolated from mouse LD50
Method: as §1

[4] = Acute toxicity in C57Bl/6 mice; assay type: in vivo; conditions: mouse, in vivo, ip; C57Bl/6 mice, intraperitoneal
Method: as §1

blood clotting = assay: Effect on blood clotting; assay type: in vivo; conditions: oral, intraperitoneal and intramuscular, varying amounts, FIG. 8
Method: Due to its relationship to Vitamin K, there was some concern as to the effect CQQ would have on blood clotting. Varying amounts of CQQ were administered orally, intraperitoneally, and intramuscularly.

Question: Which results are given for O=C1C(NC2CCCCCCC2)=CC(=O)c2ncccc21 [CQQ, 6-cyclo octylamino-5,8-quinoline quinone]?
Answer: Mean CFU counts from spleens and lungs vs untreated controls (M. tuberculosis H37 Rv [1]; 10 mg/kg daily orally, end of 4 weeks): considerable reduction; Mean colony forming unit (CFU) count, lung (M. tuberculosis H37 Rv [1]; 10 mg/kg daily orally, end of 4 weeks, control 6.42): 4.21 LOG CFU; Mean colony forming unit (CFU) count, spleen (M. tuberculosis H37 Rv [1]; 10 mg/kg daily orally, end of 4 weeks, control 6.90): 4.90 LOG CFU; Antituberculosis effectiveness (M. tuberculosis H37 Rv [1]; conclusion from Table 2): clearly an effective antituberculosis agent; Visible toxic manifestation or death (C57Bl/6 and Beige mice): No visible toxic manifestation or death; Inhibitory activity against tubercle bacilli (M. tuberculosis H37 Rv [2]): remarkable inhibitory activity; Activity vs infected untreated control ([3]; 10 mg/kg orally daily, each time point (P 0.05)): considerable activity with a statistically significant difference; Activity compared with ansamycin ([3]; both 10 mg/kg orally daily): better than that of ansamycin; In vitro effectiveness against M. tuberculosis (M. tuberculosis): effective against M. intracellulare and M. tuberculosis in vitro; Antimycobacterial activity, CFU counts from spleen and lungs vs controls (M. intracellulare): considerable antimycobactgerial activity with statistically significant differences; Cytotoxic to macrophages (macrophages): CYTOTOXIC TO MACROPHAGES; LD50 extrapolated to a 70 kg subject (C57Bl/6 mice): approximately 40 gr; LD50 [4]: 564 mg/kg; Blood clotting time (blood clotting): little change in blood clotting time
